Where two headings read alike, the source gives them in different places.
Tests used:
Assay type in all cases: cell-based
RSV strain A2 = test: microbe, parasite or virus in culture; settings: read-out: RSV HEp-2 EC50
Outline: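 Cytopathic-effect protection assay: HEp-2 cells (50,000/mL) infected with pre-titered RSV A2 onto 3-fold serial compound dilutions, incubated 4 days at 37° C. Cell viability read by CellTiter-Glo luminescence; percent inhibition derived against 0% and 100% virus-inhibition controls.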

RSV A2 = test: RSV NHBE EC50 (RSV A2 antiviral assay in NHBE cells); settings: read-out: RSV NHBE EC50
Outline: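 NHBE cells (7,500/well, passage ≤6) given 3-fold serially diluted compound (0.05% DMSO final), then infected with RSV A2 at 1×10^4.5 tissue culture infectious doses/mL. After 4 days at 37 °C, viability measured by CellTiter-Glo luminescence at 25 °C.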

DENV2 replicon = test: DENV-2 Huh-7 Rep EC50 (replicon luminescence)
Experimental: In 384 well plates (Greiner, Cat #781091), compounds were acoustically transferred at 200 nl per well in a 8 compound (4 replicates) or 40 compound dose response format (3 replicates). For all plates tested, Balapiravir, GS-5734 and NITD008 were included as positive inhibition controls alongside 0% inhibition, DMSO-only negative control wells. Following compound addition, Huh-7 cells containing the DENV2 replicon construct were harvested following standard cell culture procedures and were adjusted to a concentration of 1.25E5 cells/mL in cell culture media composed of cDMEM without genticin. 40 μL of the cell stock was then added to each well for a final cell density of 5,000 cells/well. Cell and compound mixtures were incubated at 37° C./5% CO2 for 48 hours. Prior to harvesting cells, EnduRen Live Cell Substrate (Promega, Cat #E6481) was prepared by suspending 3.4 mg into 100 uL of DMSO to generate a 60 mM stock solution. The stock solution was then diluted 1:200 in pre-warmed cDMEM and 10 uL of this diluted solution was added to each well of the 384 well plates. Plates were then centrifuged at 500 rpm briefly and were placed on a plate shaker for 2 min. Following mixing, plates were incubated at […] for 1.5 hours prior to measuring luminescence on an Envision luminometer.

[1] = human respiratory syncytial virus, HEp-2, 96 h, Table 3, HEp-2 cells, RSV A2, 4 days
[2] = human respiratory syncytial virus, NHBE, 96 h, Table 3, NHBE cells, RSV A2, 4 days
[3] = Dengue virus, DENV2, Huh-7, 48 h, read-out: DENV-2 REP Huh7 EC50
[4] = human respiratory syncytial virus, HEp-2, Table 5 comparative activity, 2',3'-OH vs -OC(O)iPr
[5] = human respiratory syncytial virus, NHBE, Table 5 comparative activity, 2',3'-OH vs -OC(O)iPr
[6] = Dengue virus, DENV2, Huh-7, read-out: DENV Rep EC50
[7] = Table 3, HEp-2 cells, RSV A2, 4 days
[8] = Table 3, NHBE cells, RSV A2, 4 days
[9] = Table 3, Huh-7 DENV2 replicon cells, 48 hours, read-out: DENV-2 REP Huh7 EC50

SMILES	EC50 (RSV strain A2; [1]) [nM]	EC50 (RSV A2; [2]) [nM]	EC50 (DENV2 replicon; [3]) [nM]	EC50 (RSV strain A2; [4]) [nM]	EC50 (RSV A2; [5]) [nM]	EC50 (DENV2 replicon; [6]) [nM]	EC50 (RSV strain A2; [7]) [nM]	EC50 (RSV A2; [8]) [nM]	EC50 (DENV2 replicon; [9]) [nM]
CC(C)C(=O)O[C@H]1[C@H](c2ccc3c(N)ncnn23)O[C@](C#N)(COP(=O)(N[C@@H](C)C(=O)OC2CCCC2)Oc2ccccc2)[C@H]1OC(=O)C(C)C (stereo partly drawn) [Example 254, (2R,3S,4S,5S)-5-(4-aminopyrrolo[2,1-f][1,2,4]triazin-7-yl)-2-cyano-2-((((((S)-1-(cyclopentyloxy)-1-oxopropan-2-yl)amino)(phenoxy)phosphoryl)oxy)methyl) tetrahydrofuran-3,4-diyl bis(2-methylpropanoate)]	36	24	29400	–	–	–	–	–	–
CCC(CC)COC(=O)[C@H](C)N[P@](=O)(OC[C@@]1(C#N)O[C@@H](c2ccc3c(N)ncnn23)[C@H](OC(C)=O)[C@@H]1OC(C)=O)Oc1ccccc1 [Example 88, (2R,3S,4S,5S)-5-(4-aminopyrrolo[2,1-f][1,2,4]triazin-7-yl)-2-cyano-2-((((S)-(((S)-1-(2-ethylbutoxy)-1-oxopropan-2-yl)amino)(phenoxy)phosphoryl)oxy)methyl) tetrahydrofuran-3,4-diyl diacetate]	108	42	8820	–	–	–	–	–	–
CC(C)C(=O)O[C@H]1[C@H](c2ccc3c(N)ncnn23)O[C@](C#N)(COP(=O)(N[C@@H](C)C(=O)OC2CC2)Oc2ccccc2)[C@H]1OC(=O)C(C)C (stereo partly drawn) [Example 255, (2R,3S,4S,5S)-5-(4-aminopyrrolo[2,1-f][1,2,4]triazin-7-yl)-2-cyano-2-((((((S)-1-cyclopropoxy-1-oxopropan-2-yl)amino)(phenoxy)phosphoryl)oxy)methyl) tetrahydrofuran-3,4-diyl bis(2-methylpropanoate)]	38	18	2910	–	–	–	–	–	–
CC(=O)OC1[C@H](c2ccc3c(N)ncnn23)O[C@](C#N)(COP(=O)(N[C@@H](C)C(=O)OCC2CCC2)Oc2ccccc2)[C@H]1OC(C)=O (stereo in doubt) [Example 94, (2R,3S,4R,5S)-5-(4-aminopyrrolo[2,1-f][1,2,4]triazin-7-yl)-2-cyano-2-((((((S)-1-(cyclobutylmethoxy)-1-oxopropan-2-yl)amino)(phenoxy)phosphoryl)oxy)methyl) tetrahydrofuran-3,4-diyl diacetate]	189	41	13700	–	–	–	–	–	–
CC(C)C(=O)O[C@H]1[C@H](c2ccc3c(N)ncnn23)O[C@](C#N)(COP(=O)(N[C@@H](C)C(=O)OCC2CCOCC2)Oc2ccccc2)[C@H]1OC(=O)C(C)C (mixture of isomers) [Example 181, (2R,3S,4S,5S)-5-(4-aminopyrrolo[2,1-f][1,2,4]triazin-7-yl)-2-cyano-2-((((((S)-1-oxo-1-((tetrahydro-2H-pyran-4-yl)methoxy)propan-2-yl)amino)(phenoxy)phosphoryl)oxy)methyl)tetrahydrofuran-3,4-diyl bis(2-methylpropanoate)]	84	30	6630	84	30	6630	–	–	–
CC(C)OC(=O)[C@H](C)NP(=O)(OC[C@@]1(C#N)O[C@@H](c2ccc3c(N)ncnn23)[C@H](OC(=O)C(C)C)[C@@H]1OC(=O)C(C)C)Oc1ccc(C(=O)N(C)C)cc1 (stereo partly drawn) [Example 177, (2R,3S,4S,5S)-5-(4-Aminopyrrolo[2,1-f][1,2,4]triazin-7-yl)-2-cyano-2-((((4-(dimethylcarbamoyl)phenoxy)(((S)-1-isopropoxy-1-oxopropan-2-yl)amino)phosphoryl)oxy)methyl)tetrahydrofuran-3,4-diyl bis(2-methylpropanoate)]	120	49	27200	–	–	–	–	–	–
CCC(=O)OC1[C@H](c2ccc3c(N)ncnn23)O[C@](C#N)(COP(=O)(N[C@@H](C)C(=O)OCC2CCC2)Oc2ccccc2)[C@H]1OC(=O)CC (stereo in doubt) [Example 91, (2R,3S,4R,5S)-5-(4-aminopyrrolo[2,1-f][1,2,4]triazin-7-yl)-2-cyano-2-((((((S)-1-(cyclobutylmethoxy)-1-oxopropan-2-yl)amino)(phenoxy)phosphoryl)oxy)methyl) tetrahydrofuran-3,4-diyl dipropionate]	67	23	10200	–	–	–	–	–	–
C[C@H](NP(=O)(OC[C@@]1(C#N)O[C@@H](c2ccc3c(N)ncnn23)[C@H](O)[C@@H]1O)Oc1ccccc1)C(=O)OCC1CCOCC1 (stereo partly drawn) [Example 20, (tetrahydro-2H-pyran-4-yl)methyl ((((2R,3S,4R,5S)-5-(4-aminopyrrolo[2,1-f][1,2,4]triazin-7-yl)-2-cyano-3,4-dihydroxytetrahydrofuran-2-yl)methoxy)(phenoxy)phosphoryl)-L-alaninate]	–	–	–	877	2230	> 50000	–	–	–
CC(C)C(=O)O[C@H]1[C@H](c2ccc3c(N)ncnn23)O[C@](C#N)(COP(=O)(N[C@@H](C)C(=O)OC[C@H]2CC[C@H](N)CC2)Oc2ccccc2)[C@H]1OC(=O)C(C)C (stereo partly drawn) [Example 207, (2R,3S,4S,5S)-2-((((((S)-1-(((1r,4S)-4-aminocyclohexyl)methoxy)-1-oxopropan-2-yl)amino)(phenoxy)phosphoryl)oxy)methyl)-5-(4-aminopyrrolo[2,1-f][1,2,4]triazin-7-yl)-2-cyanotetrahydrofuran-3,4-diyl bis(2-methylpropanoate)]	1080	149	> 37500	–	–	–	–	–	–
CC(=O)OC1[C@H](c2ccc3c(N)ncnn23)O[C@](C#N)(COP(=O)(N[C@@H](C)C(=O)OCC2CC2)Oc2ccccc2)[C@H]1OC(C)=O (stereo in doubt) [Example 101, (2R,3S,4R,5S)-5-(4-aminopyrrolo[2,1-f][1,2,4]triazin-7-yl)-2-cyano-2-((((((S)-1-(cyclopropylmethoxy)-1-oxopropan-2-yl)amino)(phenoxy)phosphoryl)oxy)methyl) tetrahydrofuran-3,4-diyl diacetate]	94	19	25800	–	–	–	–	–	–
CCC(=O)OC1[C@H](c2ccc3c(N)ncnn23)O[C@](C#N)(COP(=O)(N[C@@H](C)C(=O)OCC2CCN(CC(F)(F)F)CC2)Oc2ccccc2)[C@H]1OC(=O)CC (stereo in doubt) [Example 115, (2R,3S,4R,5S)-5-(4-aminopyrrolo[2,1-f][1,2,4]triazin-7-yl)-2-cyano-2-((((((S)-1-oxo-1-((1-(2,2,2-trifluoroethyl)piperidin-4-yl)methoxy)propan-2-yl)amino)(phenoxy)phosphoryl)oxy)methyl)tetrahydrofuran-3,4-diyl dipropionate]	112	22	20400	–	–	–	–	–	–
CC(=O)O[C@H]1[C@H](c2ccc3c(N)ncnn23)O[C@](C#N)(COP(=O)(N[C@@H](C)C(=O)OC2CCOCC2)Oc2ccccc2)[C@H]1OC(C)=O (single isomer, unassigned) [Example 164]	–	–	–	–	–	–	1690	148	> 100000
CC(C)C(=O)O[C@H]1[C@H](c2ccc3c(N)ncnn23)O[C@](C#N)(COP(=O)(N[C@@H](C)C(=O)OCC(C)(C)O)Oc2ccccc2)[C@H]1OC(=O)C(C)C (single isomer, unassigned) [Example 257]	–	–	–	–	–	–	72	24	7470
CC(C)OC(=O)[C@H](C)N[P@](=O)(OC[C@@]1(C#N)O[C@@H](c2ccc3c(N)ncnn23)[C@H](OC(=O)C2COC2)[C@@H]1OC(=O)C1COC1)Oc1ccccc1 [Example 160, (2R,3S,4S,5S)-5-(4-aminopyrrolo[2,1-f][1,2,4]triazin-7-yl)-2-cyano-2-((((S)-(((S)-1-isopropoxy-1-oxopropan-2-yl)amino)(phenoxy)phosphoryl)oxy)methyl) tetrahydrofuran-3,4-diyl bis(oxetane-3-carboxylate)]	204	860	37400	–	–	–	–	–	–
C[C@H](NP(=O)(OC[C@@]1(C#N)O[C@@H](c2ccc3c(N)ncnn23)[C@H](OC(=O)C(C)(C)C)[C@@H]1OC(=O)C(C)(C)C)Oc1ccccc1)C(=O)OC1CCOCC1 (single isomer, unassigned) [Example 172]	–	–	–	–	–	–	1100	145	16800
CC(=O)O[C@H]1[C@H](c2ccc3c(N)ncnn23)O[C@](C#N)(CO[P@](=O)(N[C@@H](C)C(=O)OCC2CC2)Oc2ccccc2)[C@H]1OC(C)=O [Example 103]	–	–	–	–	–	–	94	32	10500

Source: patent publication US12264173B2 (GILEAD SCIENCES, INC., priority 2020, dated 2025)
